PubChem BioAssay (NCI)
Values joined by “and” are separate entries in the source; they are usually repeats but may differ in a detail not shown here. Equal entries are not always repeated.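 Cultured in 96-well plates, cells were exposed to test compound for 48 hours across five concentrations. At the GI50, growth is halved. TGI marks complete inhibition of growth.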

How the values were obtained:
Test in all cases: NCI anticancer screen, dose series, 48 h
[1] = system: DMS 114 small cell lung
[2] = system: OVCAR-4 ovarian
[3] = system: NCI-H226 lung
[4] = system: SW-620 colon
[5] = system: SR leukemia
[6] = system: SNB-78 CNS
[7] = system: SN12C renal
[8] = system: T-47D breast
[9] = system: MDA-N
[10] = system: PC-3 prostate
[11] = system: HS 578T breast

Structure (SMILES) | TGI [1] [µM] | TGI [2] | TGI [3] [µM] | TGI [4] | TGI [5] | TGI [6] [µM] | TGI [7] | TGI [8] [µM] | GI50 [2] [µM] | GI50 [3] [µM] | GI50 [9] [µM] | TGI [9] | GI50 [4] [µM] | GI50 [5] [µM] | GI50 [10] [µM] | TGI [10] | TGI [11] [µM] | GI50 [7] [µM] | GI50 [8] [µM] | GI50 [11] [µM]
Cn1c(=O)oc2cc(C3CCC(=O)N3Cc3ccc(Cl)cc3)ccc21 (configuration not stated) | > 100 | > 100 µM | > 100 | > 100 µM | > 100 µM | > 100 | > 100 µM | – | – | – | – | – | – | – | – | – | – | – | – | –
Cc1cc(NC(=O)NC(=O)c2ccccc2NC(=O)CN)ccc1Oc1ncc(Br)cn1 | 75 | 45.4 µM and > 100 µM | – | 23.4 µM and > 100 µM | 55.8 µM and > 100 µM | – | 38 µM and 49.1 µM | 47.4 | 17 | 0.238 | 0.0271 | 1.1 µM and 0.178 µM | 0.506 | 0.0302 | 0.0816 | 18.8 µM and > 100 µM | 4.69 | 0.508 | – | –
COc1ccccc1NC(=O)CC(=O)NNCC(=O)Nc1nnc(-c2ccccc2)o1 | > 100 | > 100 µM | > 100 | > 100 µM | > 100 µM | > 100 | > 100 µM | – | – | – | – | – | – | – | – | – | – | – | – | –
O=C(CCCn1ccnc1[N+](=O)[O-])NCCn1ccnc1[N+](=O)[O-] | – | > 100 µM | > 100 | > 100 µM | > 100 µM | – | > 100 µM | > 100 | – | – | – | > 100 µM | – | – | – | > 100 µM | > 100 | – | – | –
O=C(O)c1ccc(C2C3C=CC(C3)C2[N+](=O)[O-])cc1 (configuration not stated) | > 100 | – | > 100 | > 100 µM | – | > 100 | > 100 µM | – | – | – | – | – | – | – | – | – | – | – | – | –
CC[C@@]1(O)C(=O)OCc2c1cc1n(c2=O)Cc2cc3c(NC(=O)CN)cccc3nc2-1 | – | > 100 µM | 3.79 | > 100 µM | < 0.0121 µM | – | 17.1 µM | 0.744 | – | – | – | 46.7 µM | – | – | – | > 100 µM | > 100 | – | – | –
CNC(=O)OCc1[nH]ccc2c(C)c3nc4ccc(OC)cc4c3cc12 | – | 66.1 µM | 18.7 | > 26.9 µM | 1.98 µM | > 100 | > 100 µM | – | – | – | – | – | – | – | – | – | – | – | – | –
N#C[C@H]1Nc2ccccc2[C@@H](O)C1O (some centres not stated) | – | > 100 µM | – | > 100 µM | > 100 µM | – | > 100 µM | > 100 | – | – | – | > 100 µM | – | – | – | > 100 µM | > 100 | – | – | –
CC(C)=CC1CC(C)C2(CCC3(C)CC4C(C(=O)CC4(C)O)/C(C=O)=C\CC32)O1 (configuration not stated) | – | 0.147 µM | 0.147 | – | 0.0945 µM | – | 0.184 µM | 0.143 | – | – | – | 0.258 µM | – | – | – | 0.14 µM | 0.421 | – | – | –
CC1=CC2CC(C)C1(C)CCc1ccoc12 (configuration not stated) | > 100 | > 100 µM | – | > 100 µM | > 100 µM | > 100 | > 100 µM | – | – | – | – | – | – | – | – | – | – | – | – | –
O=[N+]([O-])c1ccc(N=Nc2c(O)[nH]c3ccccc23)cc1 | – | 57.6 µM | 51.5 | > 100 µM | 45.9 µM | – | > 100 µM | 35.8 | – | – | – | > 100 µM | – | – | – | > 100 µM | 51.6 | – | – | –
CC(=O)OC12CC(C)C3(O)C4C=C(C)C(=O)[C@@]4(O)CC(CO)=C[C@H]3C1C2(C)C (some centres not stated) | – | > 1000 µM | > 1000 | – | > 1000 µM | – | – | – | > 1000 | > 1000 | 0.239 | – | – | > 1000 | 0.228 | > 1000 µM | – | – | – | –
CCOC(=O)C(=O)Nc1ccc(Cl)c(C(F)(F)F)c1 | > 100 | > 100 µM | > 100 | > 100 µM | > 100 µM | > 100 | > 100 µM | – | – | – | – | – | – | – | – | – | – | – | – | –
Cc1ccc2nc(N/N=C/c3cccc(C)n3)cc(C)c2c1 | – | 41.5 µM | 48.6 | 40.4 µM | 45.3 µM | – | 34.2 µM | 38.7 | – | – | – | 32.5 µM | – | – | – | 37.2 µM | 50.9 | – | – | –
COc1cc2c(c(OC)c1OC)-c1ccc(SC)c(=O)cc1C(CC(=O)Oc1cccc(C#N)c1)C2 (configuration not stated) | – | > 100 µM | 1.02 | > 100 µM | 56.3 µM | > 100 | > 77.7 µM | – | – | – | – | – | – | – | – | – | – | – | – | –
Oc1ccc(CN(Cc2ccc(C(F)(F)F)cc2)Cc2ccc(O)c3ncccc23)c2cccnc12 | – | > 100 µM | 11.7 | > 100 µM | > 100 µM | – | > 100 µM | > 100 | 0.0429 | 0.0512 | – | – | 0.0251 | 0.04 | < 0.0146 | > 100 µM | > 100 | 0.0201 | 0.028 | 0.0438
COc1cc(-c2n/c(=C\c3c(O)[nH]c4ccccc34)cc3c2=Nc2ccccc2-3)cc(OC)c1OC | – | > 100 µM | > 100 | > 100 µM | > 29.1 µM | – | > 100 µM | > 22.5 | 0.506 | 4.23 | – | – | 0.449 | 0.692 | 2.19 | > 100 µM | 68 | 0.523 | 1.14 | 0.418
COc1ccc2c(c1)C(=O)c1c-2n(CCCN2CCOCC2)c(=O)c2cc([N+](=O)[O-])ccc12 | – | 6.55 µM | 0.405 | 9.2 µM | – | – | 19.4 µM | > 100 | < 0.0264 | < 0.01 | – | – | < 0.01 | < 0.01 | < 0.01 | > 31.9 µM | 22.3 | < 0.01 | < 0.01 | 0.719
COc1ccc(C(=O)CC(c2ccc(OC)c(OC)c2)c2c(O)c3ccccc3oc2=O)cc1OC (configuration not stated) | – | > 100 µM | > 100 | > 100 µM | > 100 µM | – | > 100 µM | > 100 | – | – | – | > 100 µM | – | – | – | > 100 µM | > 100 | – | – | –
CC(=O)O[C@H]1CC[C@@]2(C)C(=CC[C@@H]3C2CC[C@]2(C)Nc4[nH]ncc4CC32)C1 (some centres not stated) | 34.2 | 37.2 µM | > 100 | > 100 µM | – | > 100 | – | – | – | – | – | – | – | – | – | – | – | – | – | –
Cc1cc2nc3c4cccc(O)c4n(CCN(C)C)c3nc2cc1C | – | 11.9 µM | 52.9 | 8.08 µM | 7.03 µM | – | 13.8 µM | 27.9 | 2.89 | 3.72 | – | – | 1.53 | 0.767 | 1.88 | 12.8 µM | 31.8 | 2.28 | 3.8 | 3.32
NC(=O)NCCSC1CCCCC1O (configuration not stated) | – | > 100 µM | > 100 | > 100 µM | > 100 µM | – | > 100 µM | > 100 | – | – | – | > 100 µM | – | – | – | > 100 µM | > 100 | – | – | –
CC1CC2(CCC1OCc1ccccc1)OCCO2 (configuration not stated) | > 100 | > 100 µM | – | > 100 µM | – | > 100 | > 100 µM | – | – | – | – | – | – | – | – | – | – | – | – | –
